{"source": "patent US20100172854A1", "about": "“ANTIBACTERIAL FORMULATIONS” (priority 2007, published 2010)", "type_in_all_cases": "cell-based", "key": {"[1]": {"test_system": "Actinomyces naeslundii ATCC 12104", "assay": "MIC assay", "protocol": "(§1) This is a standard international method for quantitatively assessing the antimicrobial activity of a compound in a liquid medium. The method used a sterile 96-well microtitre plate, capable of holding about 200 μl of liquid per well. The wells contained liquid culture medium and ranges of decreasing concentrations of the relevant test compound in doubling dilutions (e.g. 1000, 500, 250, 125 . . . μg/ml, etc. down to 0.49 μg/ml). The culture media were as described above.\n(§2) The wells were inoculated with a liquid suspension of freshly grown micro-organism and incubated under the conditions described above. After incubation, the microtitre plate was examined visually (with the aid of a light box) for cloudiness in each well, which would indicate microbial growth. The MIC value was recorded as the lowest concentration of test compound required to inhibit microbial growth, i.e. the lowest concentration for which the liquid in the well remained clear.\n(§3) The assays included both negative (culture medium with no micro-organisms) and positive (culture medium plus diluting solvent plus micro-organism) controls."}, "[2]": {"test_system": "Bacillus cereus ATCC 11778", "assay": "MIC assay", "protocol": "as §1, §2, §3"}, "[3]": {"test_system": "Clostridium difficile ATCC 7000057", "assay": "MIC assay", "conditions": "Clostridioides difficile, ATCC7000057", "protocol": "as §1, §2, §3"}, "[4]": {"test_system": "Clostridium sporogenes ATCC 3584", "assay": "MIC assay", "conditions": "ATCC3584", "protocol": "as §1, §2, §3"}, "[5]": {"test_system": "Corynebacterium mucifaciens ATCC 700355", "assay": "MIC assay", "conditions": "Corynebacterium mucifaciens, ATCC700355", "protocol": "as §1, §2, §3"}, "[6]": {"test_system": "Enterococcus faecalis ATCC 29212", "assay": "MIC assay", "conditions": "Enterococcus faecalis, ATCC29212", "protocol": "as §1, §2, §3"}, "[7]": {"test_system": "Gardnerella vaginalis ATCC 14018", "assay": "MIC assay", "conditions": "ATCC14018", "protocol": "as §1, §2, §3"}, "[8]": {"test_system": "Listeria monocytogenes ATCC 15313", "assay": "MIC assay", "protocol": "as §1, §2, §3"}, "[9]": {"test_system": "Prevotella nigrescens ATCC 33563", "assay": "MIC assay", "conditions": "ATCC33563", "protocol": "as §1, §2, §3"}, "[10]": {"test_system": "Streptococcus pyogenes ATCC 12344", "assay": "MIC assay", "conditions": "ATCC12344; Streptococcus pyogenes ATCC 12344", "protocol": "as §1, §2, §3"}, "[11]": {"test_system": "Streptococcus sobrinus ATCC 33478", "assay": "MIC assay", "conditions": "ATCC33478", "protocol": "as §1, §2, §3"}, "[12]": {"test_system": "Streptococcus mutans ATCC 25175", "assay": "MBC assay", "protocol": "(§4) The S. mutans strains were cultured and maintained on Wilkins-Chalgren Anaerobe Medium (agar and broth) at pH 7.0 supplemented with 1 g/L glucose; all cultures were incubated at 37° C. for 48 h in an atmosphere containing 5% CO2.\n(§5) This assay, normally carried out after an MIC assay, determines the minimum concentration of a compound that is lethal to the micro-organism being tested.\n(§6) These samples were then individually sub-cultured on antibiotic-free agar medium, under the incubation conditions described above. Following incubation they were examined visually for microbial growth."}, "[13]": {"test_system": "Streptococcus mutans ATCC 35668", "assay": "MBC assay", "protocol": "as §4, §5, §6"}, "P. granulosum PRP-005": {"test_system": "P. granulosum PRP-005", "assay": "Agar dilution MIC assay", "conditions": "Propionibacterium, PRP005, resistance phenotype MLSK", "protocol": "The propionibacteria were cultured and maintained on Wilkins-Chalgren Anaerobe Medium (agar and broth) at pH 6.0; all cultures were incubated anaerobically at 37° C. for 72 hours.\nThis is a standard international method for quantitatively assessing the antimicrobial activity of a compound in a solid medium. The test compound was prepared to 40× the highest concentration required (e.g. 10 mg/ml for a final concentration of 250 μg/ml) and a series of doubling dilutions were performed in a suitable solvent. A set amount of these antimicrobial stock solutions was then added to molten agar medium (ca. 55° C.), mixed thoroughly, poured into sterile Petri dishes and allowed to cool/set. The culture medium was as described above.\nA Multipoint™ Inoculator (AQS Manufacturing Ltd, UK) was used to inoculate the plates by spotting the inocula onto the surface of the agar, delivering approximately 1 to 2 μl per spot (yielding 10^5 CFU (colony forming units) per spot).\nThe plate(s) were then incubated under the conditions described above, following which they were examined visually for signs of bacterial growth. The MIC value was ascertained when there was a marked reduction in, or total loss of, growth on the test plate at the lowest concentration as compared to that of the growth on the control plate.\nThe assays were conducted in triplicate and included a positive control (culture medium, diluting solvent and inoculum)."}}}
{"smiles": "Cc1cc(Cc2cc(C)cc(C(C)(C)C)c2O)c(O)c(C(C)(C)C)c1", "note": "[AO 2246, 2,2′-methylene-bis(4-methyl-6-tert-butylphenol)]", "values": [{"measurement": "MIC", "setting": "[1]", "result": 1.95, "unit": "µg/mL"}, {"measurement": "MIC", "setting": "[2]", "result": 1.95, "unit": "µg/mL"}, {"measurement": "MIC", "setting": "[3]", "result": 3.9, "unit": "µg/mL"}, {"measurement": "MIC", "setting": "[4]", "result": 3.9, "unit": "µg/mL"}, {"measurement": "MIC", "setting": "[5]", "result": 1.95, "unit": "µg/mL"}, {"measurement": "MIC", "setting": "[6]", "result": 1.95, "unit": "µg/mL"}, {"measurement": "MIC", "setting": "[7]", "result": 15.6, "unit": "µg/mL"}, {"measurement": "MIC", "setting": "[8]", "result": 1.95, "unit": "µg/mL"}, {"measurement": "MIC", "setting": "[9]", "result": 7.8, "unit": "µg/mL"}, {"measurement": "MIC", "setting": "[10]", "result": 0.98, "unit": "µg/mL"}, {"measurement": "MIC", "setting": "[11]", "result": 15.6, "unit": "µg/mL"}, {"measurement": "MIC/MBC Ratio", "setting": "[12]", "result": 0.5}, {"measurement": "MBC", "setting": "[12]; ATCC25175", "result": 62.5, "unit": "µg/mL"}, {"measurement": "MIC/MBC Ratio", "setting": "[13]", "result": 0.25}, {"measurement": "MBC", "setting": "[13]; ATCC35668", "result": 31.2, "unit": "µg/mL"}, {"measurement": "MIC", "setting": "P. granulosum PRP-005", "result": 3.9, "unit": "µg/mL"}]}
